The values that follow come from US20020006920A1, “Arylsulfonylamino hydroxamic acid derivatives” (priority 1999, published 2002).

With `CC(C)(NS(=O)(=O)c1ccc(-c2ccccn2)s1)C(=O)NO` [Example 13, N-Hydroxy-2-methyl-2-(5-pyridin-2-ylthiophene-2-sulfonylamino)propionamide], the melting point – broadly, the temperature of the solid-liquid transition – is 165 to 166 °C. On to `O=C(NO)C1(NS(=O)(=O)c2ccc(Oc3ccc(F)cc3)cc2)CC1` [Example 5, 1-[4-(4-Fluorophenoxy)benzenesulfonylamino]cyclopropane-1-carboxylic acid hydroxyamide], for which the melting point amounted to 184 °C. `CC(C)CCOc1ccc(S(=O)(=O)NC(C)(C)C(=O)NO)cc1` [Example 11, N-Hydroxy-2-methyl-2-[4-(3-methylbutoxy)benzenesulfonylamino]-propionamide] displayed a melting point of 126.5 to 128 °C. In turn, `O=C(NO)C1(NS(=O)(=O)c2ccc(Oc3ccc(F)cc3)cc2)CCCCC1` [Example 4, 1-[4-(4-Fluorophenoxy)benzenesulfonylamino]cyclohexane-1-carboxylic acid hydroxyamide] showed a melting point of 174 °C. `COc1ccc(S(=O)(=O)NC(C)(C)C(=O)NO)cc1` [Example 9, N-Hydroxy-2-(4-methoxybenzenesulfonylamino)-2-methylpropionamide] gave a melting point of 122 to 125 °C. The compound `CC(C)(NS(=O)(=O)c1ccc(OCCC2CCCC2)cc1)C(=O)NO` [Example 12, 2-[4-(2-Cyclopentylethoxy)benzenesulfonylamino]-N-hydroxy-2-methyl-propionamide] displayed a melting point of 126 to 127 °C.
